What was measured:
Assay type in all cases: cell-based
Nrf2 [1] = biological target: T1, Nrf2 (Homo sapiens, UniProt Q16236); assay: Protein degradation assay in huH1 cells by Western blot; parameters: tested for protein degradation in huH1 cells; host or cells: huH1 (Huh1) human hepatoma cells
T1 sequence (Q16236 1-605): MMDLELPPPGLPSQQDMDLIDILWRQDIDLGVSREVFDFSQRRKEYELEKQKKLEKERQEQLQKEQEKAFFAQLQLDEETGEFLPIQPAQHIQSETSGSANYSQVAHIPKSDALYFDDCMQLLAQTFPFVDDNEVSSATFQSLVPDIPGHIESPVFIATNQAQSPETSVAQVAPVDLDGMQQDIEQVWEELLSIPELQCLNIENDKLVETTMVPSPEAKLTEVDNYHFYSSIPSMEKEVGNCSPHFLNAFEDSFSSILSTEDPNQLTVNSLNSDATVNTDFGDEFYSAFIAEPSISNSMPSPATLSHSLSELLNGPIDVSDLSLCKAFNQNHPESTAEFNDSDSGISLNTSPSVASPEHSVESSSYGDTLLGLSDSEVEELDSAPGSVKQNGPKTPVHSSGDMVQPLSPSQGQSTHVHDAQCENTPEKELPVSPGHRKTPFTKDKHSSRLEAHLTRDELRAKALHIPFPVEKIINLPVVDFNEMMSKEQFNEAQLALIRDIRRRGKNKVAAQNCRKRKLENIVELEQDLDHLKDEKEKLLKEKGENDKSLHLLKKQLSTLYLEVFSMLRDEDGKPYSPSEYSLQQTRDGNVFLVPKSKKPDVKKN
Method: Representative Compounds of the Disclosure were tested for protein degradation in huH1 cells (Vendor: JCRB: Cat #JCRB0199; Description: Human hepatoma) by Western blot analysis according to the following general protocol.
Day 0: Plated the Huh1 cells into 10-cm dishes (1.5×10^6/dish)
Day 1: Treated the cells with compounds at five concentrations, e.g., 0.01 μM, 0.04 μM, 0.11 μM, 0.33 μM and 1 μM; or 0.4 μM, 1.1 μM, 3.3 μM, 10 μM, and 30 μM.
Day 4: Harvested the cell pellets, spilt 1/3 of the pellet to extract RNA by Nucleospin RNA plus kit and measure Nrf2 and GPX2 by RT-PCR, the remaining 2/3 of the pellet to run Western blot analysis.
• a) Cell samples were lysed with lysis buffer (1×Cell lysis buffer added Protease inhibitor and phosphatase inhibitor) on ice for 5˜10 min and spun at 15,000 rpm in an Eppendorf microfuge for 15 min at 4° C. • b) The protein supernatant was collected in a new 1.5 ml tube and the protein concentrations were determined by the Pierce BCA kit (Thermo #23225). • c) Mixed protein sample with 5×SDS-PAGE loading buffer. • d) Boiled for 5 min. • e) Cooled at RT or on ice for 5 min. • f) Flash spun to bring down condensation prior to loading gel.
• a) After flash spinning the samples, 20 μg protein were loaded into the wells. • b) Using SDS-PAGE running buffer. • c) Run with Constant Voltage (70 V) for 1.5-2 hr. Membrane transfer • a) Assembled “sandwich” for Invitrogen iBlot. • b) Transferred for 9 min using P0 program. • c) Immersed membrane in Odyssey blocking buffer or 5% BSA for at least 1 hr.
• a) Incubated with 1st Antibody 1:500 diluted in blocking buffer overnight at 4° C. • b) Washed 4×15 min with 0.05-0.1% Tween 20 in TBS. • c) Incubated with secondary antibody 1:10K diluted in blocking buffer for at least 1 hr at RT. • d) Washed 3×15 min with 0.05-0.1% Tween 20 in TBS. • e) Detected with ODYSSEY (Li—COR) The results are provided in Table 5.

A549 = assay: Cancer cell viability, A549 (CellTiter-Glo); details: Homo sapiens, 72 h, A549 cells, 3 days, read-out: Cellular IC50 (μM) A549
Procedure, shortened: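 A549 and/or LK-2 lung carcinoma cells seeded overnight (20 K/mL A549; 35 K/mL LK-2), then exposed to compound for 3 days. Viability read as CellTiter-Glo luminescence after 15 min lysis; data fitted to curves.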

LK-2 = assay: Cancer cell viability, LK-2 (CellTiter-Glo); details: Homo sapiens, LK-2, 72 h, LK-2 cells, 3 days, read-out: Cellular IC50 (μM) LK-2
Method: Representative Compounds of the Disclosure were tested in A549 (Vendor: ATCC; Cat #CCL-185; Description: lung, carcinoma) and/or LK-2 (Vendor: Riken; Cat #RCB1970; Description: lung, squamous cell carcinoma) cellular viability assays according to the following general protocol. • 1. Observed the cells under microscope. • 2. Aspirated the media and added 5 mL trypsin and incubate for 3 mins. • 3. Added 10 mL fresh media and harvested all the cells in to 15 mL tubes. • 4. Centrifuged the cells at 1000 rpm for 5 mins. • 5. Re-suspended the cells with 11 mL media and took 1 mL to determine the cell number and viability. • 6. Prepared cells suspension at 20 K/mL (A549) or 35 K/mL (LK-2) • 7. Seeded the cells into 96-well plate and incubated for overnight. • 8. Added compounds into each well with a HPD300 machine (nine three-fold dilutions typically starting at 30 µM final concentration) and incubated for 3 days. • 9. After 3 days, took out the plates from the incubator and observed the cells under microscope. • 10. Passed a film at the bottom of the plates. • 11. Equilibrated the plate and its contents at room temperature for approximately 30 minutes. • 12. Thawed the CellTiter-Glo® Buffer and equilibrated to room temperature prior to use. • 13. Equilibrated the lyophilized CellTiter-Glo® Substrate to room temperature prior to use. • 14. Transferred 100 ml of CellTiter-Glo® Buffer into the amber bottle containing CellTiter-Glo® Substrate to reconstituted the lyophilized enzyme/substrate mixture. • 15. Mixed by gently vortexing, swirling or inverting the contents to obtain a homogeneous solution. • 16. Added 100 μL CellTiter-Glo® Reagent into each well • 17. Mixed contents for 15 minutes on an orbital shaker to induce cell lysis. • 18. Recorded luminescence with EnSpire machine. • 19. Passed the raw data into the file and analyzed the data with XLfit software.

Nrf2 [2] = biological target: T1, Nrf2; assay: Nrf2 degradation in A549 HiBiT-Nrf2 cells, Nano-Glo HiBiT lytic detection (HiBiT readout); parameters: host or cells: A549 HiBiT-Nrf2 cells (engineered line bought from Promega)
Procedure, shortened: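 A549 HiBiT-Nrf2 cells seeded at 5,000 cells/well in Ham's F-12 with 10% FBS, then treated next day for 6 h and 20 h at 37 °C, 5% CO2. Nrf2 degradation read by Nano-Glo HiBiT lytic luminescence after 30 min at room temperature; staurosporine served as control.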

[3] = X marks the class >10 μM, read-out: DC50 huHI1 cells >10 μM
[4] = 6 h, read-out: DC50 (nM) at 6 h
[5] = 20 h, read-out: DC50 (nM) at 20 h

SMILES	DC50 (Nrf2 [1]; [3]) [nM]	DC50 (Nrf2 [1]; X marks the class 0.1-1 μM, read-out: DC50 huHI1 cells 0.1-1 μM) [nM]	IC50 (A549) [µM]	IC50 (LK-2) [µM]	DC50 (Nrf2 [2]; [4]) [nM]	DC50 (Nrf2 [2]; [5]) [nM]
Cc1ccccc1C(=O)N1CCc2cc(-c3nc(NC(=O)Cc4cccc(OCCOCCOCCOCCOc5cccc6c5C(=O)N(C5CCC(=O)NC5=O)C6=O)c4)sc3C)ccc21 (stereo not shown) [Cpd. No. 8, 2-(3-(2-(2-(2-(2-((2-(2,6-dioxopiperidin-3-yl)-1,3-dioxoisoindolin-4-yl)oxy)ethoxy)ethoxy)ethoxy)ethoxy)phenyl)-N-(5-methyl-4-(1-(2-methylbenzoyl)indolin-5-yl)thiazol-2-yl)acetamide]	> 10000	–	–	–	–	–
Cc1ccccc1C(=O)N1CCc2cc(-c3nc(NC(=O)Cc4cccc(OCCOCCOCCOCCOCCOCCNc5cccc6c5C(=O)N(C5CCC(=O)NC5=O)C6=O)c4)sc3C)ccc21 (stereo not shown) [Cpd. No. 5, 2-(3-((17-((2-(2,6-dioxopiperidin-3-yl)-1,3-dioxoisoindolin-4-yl)amino)-3,6,9,12,15-pentaoxaheptadecyl)oxy)phenyl)-N-(5-methyl-4-(1-(2-methylbenzoyl)indolin-5-yl)thiazol-2-yl)acetamide]	> 10000	–	–	–	–	–
Cc1ccccc1C(=O)N1CCc2cc(-c3nc(NC(=O)Cc4cccc(OCCOCCOCCOCCOc5ccc6c(c5)C(=O)N(C5CCC(=O)NC5=O)C6=O)c4)sc3C)ccc21 (stereo not shown) [Cpd. No. 13, 2-(3-(2-(2-(2-(2-((2-(2,6-dioxopiperidin-3-yl)-1,3-dioxoisoindolin-5-yl)oxy)ethoxy)ethoxy)ethoxy)ethoxy)phenyl)-N-(5-methyl-4-(1-(2-methylbenzoyl)indolin-5-yl)thiazol-2-yl)acetamide]	–	100 to 1000	–	–	–	–
Cc1ccccc1C(=O)N1CCc2cc(-c3nc(NC(=O)Cc4cccc(OCCOCCOCCOCCNc5cccc6c5C(=O)N(C5CCC(=O)NC5=O)C6=O)c4)sc3C)ccc21 (stereo not shown) [Cpd. No. 3, 2-(3-(2-(2-(2-(2-((2-(2,6-dioxopiperidin-3-yl)-1,3-dioxoisoindolin-4-yl)amino)ethoxy)ethoxy)ethoxy)ethoxy)phenyl)-N-(5-methyl-4-(1-(2-methylbenzoyl)indolin-5-yl)thiazol-2-yl)acetamide]	> 10000	–	–	–	–	–
Cc1sc(NC(=O)Cc2ccc(F)c(OCCOCCNc3ccc4c(c3)CN(C3CCC(=O)NC3=O)C4=O)c2)nc1-c1ccc2c(c1)CCN2C(=O)C1CC1 (stereo not shown) [Cpd. No. 28, N-(4-(1-(cyclopropanecarbonyl)indolin-5-yl)-5-methylthiazol-2-yl)-2-(3-(2-(2-((2-(2,6-dioxopiperidin-3-yl)-1-oxoisoindolin-5-yl)amino)ethoxy)ethoxy)-4-fluorophenyl)acetamide]	–	–	0.03	0.01	< 300	< 300
Cc1sc(NC(=O)Cc2cccc(OCCOCCNc3cccc4c3C(=O)N(C3CCC(=O)NC3=O)C4=O)c2)nc1-c1ccc2c(c1)CCN2C(=O)c1cncn1C (stereo not shown) [Cpd. No. 35, 2-(3-(2-(2-((2-(2,6-dioxopiperidin-3-yl)-1,3-dioxoisoindolin-4-yl)amino)ethoxy)ethoxy)phenyl)-N-(5-methyl-4-(1-(1-methyl-1H-imidazole-5-carbonyl)indolin-5-yl)thiazol-2-yl)acetamide]	–	–	0.03	0.01	< 300	> 3000
Cc1ccccc1C(=O)N1CCc2cc(-c3nc(NC(=O)Cc4cccc(OCCOCCOCCOCCOCCNc5cccc6c5C(=O)N(C5CCC(=O)NC5=O)C6=O)c4)sc3C)ccc21 (stereo not shown) [Cpd. No. 4, 2-(3-((14-((2-(2,6-dioxopiperidin-3-yl)-1,3-dioxoisoindolin-4-yl)amino)-3,6,9,12-tetraoxatetradecyl)oxy)phenyl)-N-(5-methyl-4-(1-(2-methylbenzoyl)indolin-5-yl)thiazol-2-yl)acetamide]	> 10000	–	–	–	–	–
Cc1sc(NC(=O)Cc2cccc(OCCCCCNc3cccc4c3C(=O)N(C3CCC(=O)NC3=O)C4=O)c2)nc1-c1ccc2c(c1)CCN2C(=O)C1CC1 (stereo not shown) [Cpd. No. 40, N-(4-(1-(cyclopropanecarbonyl)indolin-5-yl)-5-methylthiazol-2-yl)-2-(3-((5-((2-(2,6-dioxopiperidin-3-yl)-1,3-dioxoisoindolin-4-yl)amino)pentyl)oxy)phenyl)acetamide]	–	–	0.11	0.08	< 300	< 300
Cc1ccccc1C(=O)N1CCc2cc(-c3nc(NC(=O)Cc4cccc(OCCOCCNc5ccc6c(c5)C(=O)N(C5CCC(=O)NC5=O)C6=O)c4)sc3C)ccc21 (stereo not shown) [Cpd. No. 20, 2-(3-(2-(2-((2-(2,6-dioxopiperidin-3-yl)-1,3-dioxoisoindolin-5-yl)amino)ethoxy)ethoxy)phenyl)-N-(5-methyl-4-(1-(2-methylbenzoyl)indolin-5-yl)thiazol-2-yl)acetamide]	–	–	0.3	0.06	300 to 3000	300 to 3000
Cc1sc(NC(=O)Cc2ccc(F)c(OCCOCCNc3ccc4c(c3)C(=O)N(C3CCC(=O)NC3=O)C4=O)c2)nc1-c1ccc2c(c1)CCN2C(=O)C1CC1 (stereo not shown) [Cpd. No. 27, N-(4-(1-(cyclopropanecarbonyl)indolin-5-yl)-5-methylthiazol-2-yl)-2-(3-(2-(2-((2-(2,6-dioxopiperidin-3-yl)-1,3-dioxoisoindolin-5-yl)amino)ethoxy)ethoxy)-4-fluorophenyl)acetamide]	–	–	0.08	0.03	< 300	< 300

— US20260055097A9, “NRF2 PROTEIN DEGRADERS” (Ganymede Oncology, Inc., priority 2022, published 2026)
